# Experimental data as given in patent US20160046618A1, “Cyclopropyl Fused Thiazin-2-Amine Compounds as Beta-Secretase Inhibitors and Methods of Use” (AMGEN INC., priority 2014, published 2016).
# Like-named read-outs stand apart in the source and are kept apart here.
# Experiments:
# [1] = system: Aβ40 in conditioned medium of cells stably expressing Amyloid Precursor Protein (APP); assay: In vitro BACE-1 cell-based assay (Aβ40 sandwich ELISA); conditions: read-out: IC50 IP (μM) BACE1 cell
# Summary of the method: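 Aβ40 in supernatants measured by time-resolved fluorescence sandwich ELISA, with pAb40 as capture and biotin-6E10 as detector antibody, each incubated at 4 °C.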
# Recombinant Cat D = Recombinant Cat D (Homo sapiens (Human), UniProt P07339); assay: In vitro enzymatic Cathepsin D (Cat D) FRET assay; format: biochemical; conditions: read-out: IC50 IP (μM) CatD
# Chain of Recombinant Cat D (P07339 65-412): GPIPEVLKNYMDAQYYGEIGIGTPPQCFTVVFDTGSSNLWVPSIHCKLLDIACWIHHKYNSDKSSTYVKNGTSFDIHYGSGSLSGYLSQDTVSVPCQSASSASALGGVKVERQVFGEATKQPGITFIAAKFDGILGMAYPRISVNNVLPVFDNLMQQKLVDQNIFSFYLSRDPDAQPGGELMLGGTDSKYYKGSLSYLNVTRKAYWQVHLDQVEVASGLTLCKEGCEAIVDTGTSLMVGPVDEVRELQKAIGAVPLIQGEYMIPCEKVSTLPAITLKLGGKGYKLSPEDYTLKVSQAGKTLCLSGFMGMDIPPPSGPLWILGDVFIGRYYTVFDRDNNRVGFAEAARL
# Summary of the method: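 CHO-expressed enzyme; buffer 0.05 M citrate pH 3.5, 5 mM CHAPS, 10% DMSO final. Start with FRET substrate 20 nM, 1 h incubation, Tris stop (pH to neutral), fluorescence ex 500 nm/em 580 nm.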
# human recombinant BACE1 = human recombinant BACE1 (Homo sapiens (Human), UniProt P56817); assay: In vitro enzymatic BACE1 FRET assay; format: biochemical; conditions: read-out: IC50 IP (μM) BACE1 enzyme
# Chain of human recombinant BACE1 (P56817 46-501): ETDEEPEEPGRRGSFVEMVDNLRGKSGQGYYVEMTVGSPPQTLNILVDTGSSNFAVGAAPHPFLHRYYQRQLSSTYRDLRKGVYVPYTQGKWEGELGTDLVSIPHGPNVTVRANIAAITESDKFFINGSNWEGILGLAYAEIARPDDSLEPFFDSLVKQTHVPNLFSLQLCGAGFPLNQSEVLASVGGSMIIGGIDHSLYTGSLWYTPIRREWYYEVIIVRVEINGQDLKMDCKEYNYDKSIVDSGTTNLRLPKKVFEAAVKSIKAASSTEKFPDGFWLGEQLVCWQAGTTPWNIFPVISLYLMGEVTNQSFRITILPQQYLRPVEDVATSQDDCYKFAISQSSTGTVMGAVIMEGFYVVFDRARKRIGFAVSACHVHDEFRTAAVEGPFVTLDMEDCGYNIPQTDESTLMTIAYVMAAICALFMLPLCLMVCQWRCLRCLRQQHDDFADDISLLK
# Summary of the method: (§1)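 Fluorescence from cleavage of a quenched peptide spanning the BACE site (50 nM) was read at 488 nm excitation, 590 nm emission. Purified enzyme (Ni-NTA) and compound reacted for one hour before a Tris stop shifted pH to neutral.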
# human recombinant BACE2 = human recombinant BACE2 (Homo sapiens (Human), UniProt Q9Y5Z0); assay: In vitro enzymatic BACE2 FRET assay; format: biochemical; conditions: read-out: IC50 IP (μM) BACE2 enzyme
# Chain of human recombinant BACE2 (Q9Y5Z0 63-518): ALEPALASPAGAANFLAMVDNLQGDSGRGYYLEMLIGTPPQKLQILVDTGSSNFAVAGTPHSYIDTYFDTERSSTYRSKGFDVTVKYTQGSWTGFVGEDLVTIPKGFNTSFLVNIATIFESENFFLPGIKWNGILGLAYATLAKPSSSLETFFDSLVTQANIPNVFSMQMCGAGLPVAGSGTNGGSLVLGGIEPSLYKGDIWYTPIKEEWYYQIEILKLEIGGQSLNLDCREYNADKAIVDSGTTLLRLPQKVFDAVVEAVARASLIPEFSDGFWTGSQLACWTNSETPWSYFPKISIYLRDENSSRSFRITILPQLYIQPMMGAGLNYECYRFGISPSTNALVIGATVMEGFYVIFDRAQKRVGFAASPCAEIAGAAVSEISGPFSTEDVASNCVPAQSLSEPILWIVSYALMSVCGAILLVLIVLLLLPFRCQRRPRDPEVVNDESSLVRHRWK
# Summary of the method: as §1
SMILES,IC50 ([1]; BACE1 cell-based assay),IC50 (Recombinant Cat D; Cathepsin D FRET enzyme assay),IC50 (human recombinant BACE1; BACE1 FRET enzyme assay),IC50 (human recombinant BACE2; BACE2 FRET enzyme assay),IC50 [1],IC50 (Recombinant Cat D),IC50 (human recombinant BACE1),IC50 (human recombinant BACE2)
"Cc1cc(C#N)cnc1C(=O)Nc1cc(F)c(F)c([C@@]2(C)N=C(N)S[C@@]3(C(F)F)C[C@@H]23)c1 [Example 94, N-(3-((1S,5S,6S)-3-amino-1-(difluoromethyl)-5-methyl-2-thia-4-azabicyclo[4.1.0]hept-3-en-5-yl)-4,5-difluorophenyl)-5-cyano-3-methylpicolinamide]",0.00304 µM,559 µM,0.00053 µM,< 0.00203 µM,,,,
"C[C@]1(c2cc(Nc3nccc4nc(OCc5cocn5)cnc34)cc(F)c2F)N=C(N)S[C@@]2(C(F)F)C[C@@H]12 [Example 867, N-(3-((1S,5S,6S)-3-amino-1-(difluoromethyl)-5-methyl-2-thia-4-azabicyclo[4.1.0]hept-3-en-5-yl)-4,5-difluorophenyl)-2-(1,3-oxazol-4-ylmethoxy)pyrido[3,4-b]pyrazin-5-amine]",,,,,0.011 µM,299 µM,0.00171 µM,0.0549 µM
"CNC(=O)[C@]12C[C@H]1[C@@](C)(c1cc(NC(=O)c3ncc(OCC(F)(F)F)cc3C)cc(F)c1F)N=C(N)S2 [Example 702, (1S,5S,6S)-3-amino-5-(2,3-difluoro-5-(((3-methyl-5-(2,2,2-trifluoroethoxy)-2-pyridinyl)carbonyl)amino)phenyl)-N,5-dimethyl-2-thia-4-azabicyclo[4.1.0]hept-3-ene-1-carboxamide]",,,,,0.0344 µM,362 µM,0.000986 µM,0.269 µM
"C#CCOc1cnc2c(Nc3ccc(F)c([C@@]4(CF)N=C(N)S[C@@]5(/C=C/C(=O)N(C)C)C[C@H]54)c3)nccc2n1 [Example 768, (2E)-3-((1R,5S,6S)-3-amino-5-(fluoromethyl)-5-(2-fluoro-5-((2-(2-propyn-1-yloxy)pyrido[3,4-b]pyrazin-5-yl)amino)phenyl)-2-thia-4-azabicyclo[4.1.0]hept-3-en-1-yl)-N,N-dimethyl-2-propenamide]",,,,,0.00113 µM,406 µM,0.00119 µM,0.00612 µM
"COC[C@]12C[C@H]1[C@@](C)(c1cc(NC(=O)c3cnc(OCc4nc(C)no4)cn3)cc(F)c1F)N=C(N)S2 [Example 1014, N-(3-((1S,5S,6S)-3-amino-1-(methoxymethyl)-5-methyl-2-thia-4-azabicyclo[4.1.0]hept-3-en-5-yl)-4,5-difluorophenyl)-5-((3-methyl-1,2,4-oxadiazol-5-yl)methoxy)-2-pyrazinecarboxamide]",,,,,0.00289 µM,2560 µM,0.000879 µM,0.192 µM
"N#Cc1cnc2c(Nc3ccc(F)c([C@@]4(CF)N=C(N)S[C@@]5(CF)C[C@H]54)c3)ncnc2c1 [Example 97, 4-((3-((1S,5S,6S)-3-amino-1,5-bis(fluoromethyl)-2-thia-4-azabicyclo[4.1.0]hept-3-en-5-yl)-4-fluorophenyl)amino)pyrido[3,2-d]pyrimidine-7-carbonitrile]",0.0312 µM,752 µM,0.0118 µM,0.0632 µM,,,,
"C#CCOc1cnc(C(=O)Nc2cc(F)c(F)c([C@@]3(C)N=C(N)S[C@@]4(C(F)F)C[C@@H]34)c2)c(C)n1 [Example 861, N-(3-((1S,5S,6S)-3-amino-1-(difluoromethyl)-5-methyl-2-thia-4-azabicyclo[4.1.0]hept-3-en-5-yl)-4,5-difluorophenyl)-3-methyl-5-(2-propyn-1-yloxy)-2-pyrazinecarboxamide]",,,,,0.00754 µM,146 µM,0.000889 µM,0.0176 µM
"Cc1cc(OCc2ncco2)cnc1C(=O)Nc1cc(F)c(F)c([C@@]2(C)N=C(N)S[C@@]3(C(F)F)C[C@@H]23)c1 [Example 643, N-(3-((1S,5S,6S)-3-amino-1-(difluoromethyl)-5-methyl-2-thia-4-azabicyclo[4.1.0]hept-3-en-5-yl)-4,5-difluorophenyl)-3-methyl-5-(1,3-oxazol-2-ylmethoxy)-2-pyridinecarboxamide]",,,,,0.0328 µM,751 µM,0.00246 µM,0.134 µM
"COc1cnc2c(Nc3cc(F)c(F)c([C@@]4(C)N=C(N)S[C@@]5(CO)C[C@H]54)c3)nccc2n1 [Example 93, ((1S,5S,6S)-3-Amino-5-(2,3-difluoro-5-((2-methoxypyrido[3,4-b]pyrazin-5-yl)amino)phenyl)-5-methyl-2-thia-4-azabicyclo[4.1.0]hept-3-en-1-yl)methanol]",0.0108 µM,1380 µM,0.01 µM,0.0342 µM,,,,

# Next, values leading:
IC50 ([1]; BACE1 cell-based assay),IC50 (Recombinant Cat D; Cathepsin D FRET enzyme assay),IC50 (human recombinant BACE1; BACE1 FRET enzyme assay),IC50 (human recombinant BACE2; BACE2 FRET enzyme assay),IC50 [1],IC50 (Recombinant Cat D),IC50 (human recombinant BACE1),IC50 (human recombinant BACE2),SMILES
,,,,0.000575 µM,7.08 µM,0.000885 µM,0.0213 µM,"C#CCOc1cnc(C(=O)Nc2ccc(F)c([C@@]3(C)N=C(N)S[C@@]4(C(=O)NC(C)(C)CF)C[C@H]43)c2)cn1 [Example 1006, (1S,5S,6S)-3-amino-N-(1-fluoro-2-methylpropan-2-yl)-5-(2-fluoro-5-(5-(prop-2-yn-1-yloxy)pyrazine-2-carboxamido)phenyl)-5-methyl-2-thia-4-azabicyclo[4.1.0]hept-3-ene-1-carboxamide]"
,,,,0.00257 µM,14.5 µM,0.00132 µM,0.014 µM,"CC(C)[C@H](C)NC(=O)[C@]12C[C@H]1[C@@](C)(c1cc(NC(=O)c3cnc(OCC(F)(F)F)cn3)ccc1F)N=C(N)S2 [Example 974, (1S,5S,6S)-3-amino-5-(2-fluoro-5-(5-(2,2,2-trifluoroethoxy)pyrazine-2-carboxamido)phenyl)-5-methyl-N—((S)-3-methylbutan-2-yl)-2-thia-4-azabicyclo[4.1.0]hept-3-ene-1-carboxamide]"
,,,,0.000747 µM,19.8 µM,0.000455 µM,0.013 µM,"C#CCOc1cnc(C(=O)Nc2cc(F)c(F)c([C@@]3(C)N=C(N)S[C@@]4(CNC(=O)OC(C)(C)C)C[C@H]43)c2)cn1 [Example 980, tert-butyl(((1S,5S,6S)-3-amino-5-(2,3-difluoro-5-(5-(prop-2-yn-1-yloxy)pyrazine-2-carboxamido)phenyl)-5-methyl-2-thia-4-azabicyclo[4.1.0]hept-3-en-1-yl)methyl)carbamate]"
,,,,0.00067 µM,174 µM,0.000518 µM,0.0406 µM,"C#CCOc1cnc(C(=O)Nc2cnc(OC)c([C@@]3(C)N=C(N)S[C@@]4(C(F)F)C[C@@H]34)c2)cn1 [Example 989, N-(5-((1S,5S,6S)-3-amino-1-(difluoromethyl)-5-methyl-2-thia-4-azabicyclo[4.1.0]hept-3-en-5-yl)-6-methoxy-3-pyridinyl)-5-(2-propyn-1-yloxy)-2-pyrazinecarboxamide]"
,,,,0.000762 µM,590 µM,0.000799 µM,0.0194 µM,"C#CCOc1cnc(C(=O)Nc2cnc(F)c([C@@]3(C)N=C(N)S[C@@]4(COC)C[C@H]43)c2)cn1 [Example 859, N-(5-((1S,5S,6S)-3-amino-1-(methoxymethyl)-5-methyl-2-thia-4-azabicyclo[4.1.0]hept-3-en-5-yl)-6-fluoro-3-pyridinyl)-5-(2-propyn-1-yloxy)-2-pyrazinecarboxamide]"
,,,,0.00329 µM,175 µM,0.000679 µM,0.032 µM,"C[C@]1(c2cc(NC(=O)c3cnc(OCC(F)(F)F)cn3)ccc2F)N=C(N)S[C@@]2(C(=O)NC3CC3(F)F)C[C@H]21 (stereo partly drawn) [Example 982, (1S,5S,6S)-3-amino-N-(2,2-difluorocyclopropyl)-5-(2-fluoro-5-(5-(2,2,2-trifluoroethoxy)pyrazine-2-carboxamido)phenyl)-5-methyl-2-thia-4-azabicyclo[4.1.0]hept-3-ene-1-carboxamide]"
,,,,0.00109 µM,271 µM,0.000937 µM,0.073 µM,"C#C[C@H](C)Oc1cnc(C(=O)Nc2ccc(F)c([C@@]3(C)N=C(N)S[C@@]4(C(=O)NC(C)(C)CF)C[C@H]43)c2)cn1 [Example 1019, (1S,5S,6S)-3-amino-5-(5-(5-((S)-but-3-yn-2-yloxy)pyrazine-2-carboxamido)-2-fluorophenyl)-N-(1-fluoro-2-methylpropan-2-yl)-5-methyl-2-thia-4-azabicyclo[4.1.0]hept-3-ene-1-carboxamide]"
,,,,0.0352 µM,655 µM,0.00439 µM,0.175 µM,"C#C[C@H](C)Oc1cnc(C(=O)Nc2ccc(F)c([C@@]3(C)N=C(N)S[C@@]4(C(F)F)C[C@@H]34)c2)c(C)n1 [Example 619, N-(3-((1S,5S,6S)-3-amino-1-(difluoromethyl)-5-methyl-2-thia-4-azabicyclo[4.1.0]hept-3-en-5-yl)-4-fluorophenyl)-3-methyl-5-(((1S)-1-methyl-2-propyn-1-yl)oxy)-2-pyrazinecarboxamide]"
,,,,0.0652 µM,> 400 µM,0.00357 µM,0.158 µM,"C#C[C@H](C)Oc1cnc(C(=O)Nc2cc(F)c(F)c([C@@]3(C)N=C(N)S[C@@]4(C(F)F)C[C@@H]34)c2)c(C)n1 [Example 617, N-(3-((1S,5S,6S)-3-amino-1-(difluoromethyl)-5-methyl-2-thia-4-azabicyclo[4.1.0]hept-3-en-5-yl)-4,5-difluorophenyl)-3-methyl-5-(((1S)-1-methyl-2-propyn-1-yl)oxy)-2-pyrazinecarboxamide]"
